The results in this text go back to ChEMBL document CHEMBL1212747, “In vitro activity of thimerosal against ocular pathogenic fungi” (2010).

Values after ≈ are worked out from the molar mass of the structure shown.

By MIC is commonly meant the least concentration at which growth counts as inhibited. One may read the MIC50 as an inhibitory concentration at the 50% level, which refers to growth in some studies and to a panel of isolates in others. High values mean lower susceptibility, low ones higher susceptibility. In general, MIC90 refers to the lowest concentration that inhibits either 90% of growth or 90% of the strains tested, depending on the study.

Holding throughout (format): functional
Test [1] has as its system Fusarium solani. The experiment in a line: Antifungal activity against Fusarium solani species complex clinical isolates after 48 hrs by broth microdilution method. (In general: Broth dilution looks for growth in wells or tubes with falling amounts of substance.)
Test [2] deals with Aspergillus niger. The test is described as follows: Antifungal activity against Aspergillus niger clinical isolates after 48 hrs by broth microdilution method.
The test system of test [3] is Aspergillus candidus. The experiment in a line: Antifungal activity against Aspergillus candidus clinical isolates after 48 hrs by broth microdilution method.
In test [4] the test system is Alternaria alternata. The experiment in a line: Antifungal activity against Alternaria alternata clinical isolates after 48 hrs by broth microdilution method.
In test [5] the test system is Aspergillus sp. The experiment in a line: Antifungal activity against Aspergillus sp. clinical isolates after 48 hrs by broth microdilution method.
Test [6] has as its system Fusarium sp. The test is described as follows: Antifungal activity against Fusarium sp. clinical isolates after 48 hrs by broth microdilution method.
The test system of test [7] is Aspergillus flavus. The experiment in a line: Antifungal activity against Aspergillus flavus species complex clinical isolates after 48 hrs by broth microdilution method.
Test [8] relates to Aspergillus nidulans. The experiment in a line: Antifungal activity against Aspergillus nidulans clinical isolates after 48 hrs by broth microdilution method.
Test [9] has as its system Aspergillus ochraceus. The test is described as follows: Antifungal activity against Aspergillus ochraceus clinical isolates after 48 hrs by broth microdilution method.
The subject of test [10] is Fusarium verticillioides. The experiment in a line: Antifungal activity against Fusarium moniliforme species complex clinical isolates after 48 hrs by broth microdilution method.
Test [11] can be described thus: Antifungal activity against Fusarium poae clinical isolates after 48 hrs by broth microdilution method.
The subject of test [12] is Fusarium avenaceum. The experiment in a line: Antifungal activity against Fusarium avenaceum species complex clinical isolates after 48 hrs by broth microdilution method.
For test [13], the system named is Aspergillus oryzae. The experiment in a line: Antifungal activity against Aspergillus oryzae species complex clinical isolates after 48 hrs by broth microdilution method.
Test [14] deals with Aspergillus wentii. The test is described as follows: Antifungal activity against Aspergillus wentii clinical isolates after 48 hrs by broth microdilution method.
In test [15] the test system is Fusarium oxysporum. The experiment in a line: Antifungal activity against Fusarium oxysporum clinical isolates after 48 hrs by broth microdilution method.
The test system of test [16] is Aspergillus versicolor. The experiment in a line: Antifungal activity against Aspergillus versicolor species complex clinical isolates after 48 hrs by broth microdilution method.
Test [17] deals with Aspergillus fumigatus. The experiment in a line: Antifungal activity against Aspergillus fumigatus species complex clinical isolates after 48 hrs by broth microdilution method.
Test [18] in a line: Antifungal activity against Fusarium lateritium clinical isolates after 48 hrs by broth microdilution method.
Where [19] appears, read: Fusarium sp., 48 h, read-out: MIC90.

On to `C[C@@H]1[C@H](O)[C@@H](C)/C=C/C=C/C=C/C=C/C=C/C=C/C=C/[C@H](O[C@@H]2O[C@H](C)[C@@H](O)[C@H](N)[C@@H]2O)C[C@@H]2O[C@](O)(C[C@@H](O)C[C@@H](O)[C@H](O)CC[C@@H](O)C[C@@H](O)CC(=O)O[C@H]1C)C[C@H](O)[C@H]2C(=O)O` [AMPHOTERICIN B], for which the MIC in test [1] amounted to 1 µg/mL (≈ 1.08 µM); in [2], 1 µg/mL (≈ 1.08 µM); in [3], 1 µg/mL (≈ 1.08 µM); in test [4], 0.125 µg/mL (≈ 0.135 µM); in test [5], 1 µg/mL (≈ 1.08 µM); in [6] (Fusarium sp., 48 h), 1 µg/mL (≈ 1.08 µM). In addition, the MIC turned out to be 2 µg/mL (≈ 2.16 µM) in test [7]; 1 µg/mL (≈ 1.08 µM) in test [8]; 1 µg/mL (≈ 1.08 µM) in test [9]; 2 µg/mL (≈ 2.16 µM) in test [10]; 2 µg/mL (≈ 2.16 µM) in test [12]; 1 µg/mL (≈ 1.08 µM) in test [13]. For the same compound, the minimum inhibitory concentration (MIC) in test [14], in [15], in test [16] and in [17] was 1 µg/mL (≈ 1.08 µM) in each case. In addition, the MIC50 in [1] is 1 µg/mL (≈ 1.08 µM); in [2], 1 µg/mL (≈ 1.08 µM); in [3], 1 µg/mL (≈ 1.08 µM); in test [4], 0.125 µg/mL (≈ 0.135 µM); in [5] it was 1 µg/mL (≈ 1.08 µM); in test [6] (Fusarium sp., 48 h) it was 1 µg/mL (≈ 1.08 µM). Besides, the MIC50 in test [7] amounted to 2 µg/mL (≈ 2.16 µM); in test [8], 1 µg/mL (≈ 1.08 µM); in [9], 1 µg/mL (≈ 1.08 µM); in [10], 2 µg/mL (≈ 2.16 µM); in test [11], 1 µg/mL (≈ 1.08 µM); in test [12], 2 µg/mL (≈ 2.16 µM). Besides, the MIC50 in test [13], in [14], in test [15], in test [16], in test [17] and in test [18] was 1 µg/mL (≈ 1.08 µM) in each case. Further, the MIC90 was 2 µg/mL (≈ 2.16 µM) in test [1]; 2 µg/mL (≈ 2.16 µM) in test [2]; 2 µg/mL (≈ 2.16 µM) in test [3]; 0.125 µg/mL (≈ 0.135 µM) in test [4]; 2 µg/mL (≈ 2.16 µM) in test [5]; 2 µg/mL (≈ 2.16 µM) in test [6]. Also, the MIC90 in test [6] (setting [19]), in test [7], in test [8], in [9], in test [10] and in test [11] was 2 µg/mL (≈ 2.16 µM) in each case. Also, the MIC90 in test [12] amounted to 4 µg/mL (≈ 4.33 µM); in [13], 2 µg/mL (≈ 2.16 µM); in test [14], 2 µg/mL (≈ 2.16 µM); in test [15] it was 2 µg/mL (≈ 2.16 µM); in [16] it was 2 µg/mL (≈ 2.16 µM); in test [17] it was 2 µg/mL (≈ 2.16 µM). Moreover, in test [18], the MIC90 was 2 µg/mL (≈ 2.16 µM).
Turning to `CN(C/C=C/C#CC(C)(C)C)Cc1cccc2ccccc12` [TERBINAFINE], the MIC90 in [6] (setting [19]) worked out at 8 µg/mL (≈ 27.5 µM).
Same read-out and setting: the result for `CC[C@@H]([C@H](C)O)n1ncn(-c2ccc(N3CCN(c4ccc(OC[C@@H]5CO[C@@](Cn6cncn6)(c6ccc(F)cc6F)C5)cc4)CC3)cc2)c1=O` [POSACONAZOLE] reads above 8 µg/mL; that for `CCC(C)n1ncn(-c2ccc(N3CCN(c4ccc(OCC5COC(Cn6cncn6)(c6ccc(Cl)cc6Cl)O5)cc4)CC3)cc2)c1=O` (stereo not given) [ITRACONAZOLE], above 16 µg/mL.
The same measure, in the same setting: the result for `Nc1nc(=O)[nH]cc1F` [FLUCYTOSINE] reads above 64 µg/mL.
THIMEROSAL: the MIC50 in test [1] amounted to 0.0156 µg/mL; in test [2], 0.0156 µg/mL; in test [3], 0.0156 µg/mL; in test [4] it was 0.0156 µg/mL; in test [5] it was 0.0625 µg/mL; in [6], 0.0156 µg/mL. Besides, the MIC50 in [7] was determined as 0.0625 µg/mL; in [8] it was 0.0156 µg/mL; in [9], 0.0156 µg/mL; in [10], 0.0156 µg/mL; in test [11], 0.0156 µg/mL; in [12], 0.0156 µg/mL. Also, the MIC50 in test [13] worked out at 0.0625 µg/mL; in [14] it was 0.0156 µg/mL; in [15] it was 0.0156 µg/mL; in test [16] it was 0.0156 µg/mL; in [17], 0.0313 µg/mL; in test [18], 0.0156 µg/mL. The MIC90 in test [1] is 0.0313 µg/mL; in [2], 0.0313 µg/mL; in test [3], 0.0313 µg/mL; in test [4] it was 0.0313 µg/mL; in test [5], 0.0625 µg/mL; in test [6], 0.0313 µg/mL. The MIC90 in test [7] was found to be 0.0625 µg/mL; in test [8], 0.0313 µg/mL; in [9], 0.0313 µg/mL; in [10], 0.0313 µg/mL; in [11], 0.0313 µg/mL; in test [12], 0.0313 µg/mL. The MIC90 in test [13] worked out at 0.0625 µg/mL; in test [14], 0.0313 µg/mL; in test [15], 0.0313 µg/mL; in test [16], 0.0625 µg/mL; in test [17] it was 0.0625 µg/mL; in test [18] it was 0.0313 µg/mL.
Regarding `C[C@@H]1C/C=C/C=C/C=C/C=C/[C@H](O[C@@H]2O[C@H](C)[C@@H](O)[C@H](N)[C@@H]2O)C[C@@H]2O[C@](O)(C[C@@H](O)C[C@H]3O[C@@H]3/C=C/C(=O)O1)C[C@H](O)[C@H]2C(=O)O` [NATAMYCIN], the MIC came out at 4 µg/mL (≈ 6.01 µM) in test [1]; 4 µg/mL (≈ 6.01 µM) in [2]; 4 µg/mL (≈ 6.01 µM) in [3]; 4 µg/mL (≈ 6.01 µM) in test [4]; 32 µg/mL (≈ 48.1 µM) in test [5]; 4 µg/mL (≈ 6.01 µM) in [6] (Fusarium sp., 48 h). Moreover, the MIC in test [7] turned out to be 32 µg/mL (≈ 48.1 µM); in test [8] it was 4 µg/mL (≈ 6.01 µM); in [9] it was 4 µg/mL (≈ 6.01 µM); in test [10], 4 µg/mL (≈ 6.01 µM); in test [12], 8 µg/mL (≈ 12 µM); in test [13] it was 32 µg/mL (≈ 48.1 µM). For the same compound, the MIC in [14] was found to be 4 µg/mL (≈ 6.01 µM); in test [15], 4 µg/mL (≈ 6.01 µM); in [16], 8 µg/mL (≈ 12 µM); in [17], 4 µg/mL (≈ 6.01 µM). The MIC50 in [1] was determined as 4 µg/mL (≈ 6.01 µM); in [2] it was 4 µg/mL (≈ 6.01 µM); in test [3], 4 µg/mL (≈ 6.01 µM); in test [4], 4 µg/mL (≈ 6.01 µM); in [5], 32 µg/mL (≈ 48.1 µM); in test [6] (Fusarium sp., 48 h), 4 µg/mL (≈ 6.01 µM). Moreover, the MIC50 came to 32 µg/mL (≈ 48.1 µM) in [7]; 4 µg/mL (≈ 6.01 µM) in test [8]; 4 µg/mL (≈ 6.01 µM) in [9]; 4 µg/mL (≈ 6.01 µM) in test [10]; 4 µg/mL (≈ 6.01 µM) in test [11]; 8 µg/mL (≈ 12 µM) in test [12]. Besides, the MIC50 in test [13] worked out at 32 µg/mL (≈ 48.1 µM); in test [14], 4 µg/mL (≈ 6.01 µM); in test [15], 4 µg/mL (≈ 6.01 µM); in test [16], 8 µg/mL (≈ 12 µM); in test [17], 4 µg/mL (≈ 6.01 µM); in [18], 4 µg/mL (≈ 6.01 µM). The MIC90 in [1] came to 8 µg/mL (≈ 12 µM); in test [2] it was 32 µg/mL (≈ 48.1 µM); in [3], 32 µg/mL (≈ 48.1 µM); in test [4] it was 4 µg/mL (≈ 6.01 µM); in test [5] it was 32 µg/mL (≈ 48.1 µM); in test [6] it was 16 µg/mL (≈ 24 µM). In addition, the MIC90 came to 8 µg/mL (≈ 12 µM) in test [6] (setting [19]); 32 µg/mL (≈ 48.1 µM) in test [7]; 32 µg/mL (≈ 48.1 µM) in test [8]; 32 µg/mL (≈ 48.1 µM) in [9]; 8 µg/mL (≈ 12 µM) in [10]; 8 µg/mL (≈ 12 µM) in [11]. Besides, the MIC90 in test [12] is 8 µg/mL (≈ 12 µM); in [13] it was 32 µg/mL (≈ 48.1 µM); in [14], 32 µg/mL (≈ 48.1 µM); in [15], 8 µg/mL (≈ 12 µM); in [16], 32 µg/mL (≈ 48.1 µM); in test [17] it was 4 µg/mL (≈ 6.01 µM). The compound also came in with an MIC90 in [18] of 8 µg/mL (≈ 12 µM).
As for `CC[C@H](C)C[C@H](C)CCCCCCCCC(=O)N[C@H]1C[C@@H](O)[C@@H](NCCN)NC(=O)[C@@H]2[C@@H](O)CCN2C(=O)[C@H]([C@H](O)CCN)NC(=O)[C@H]([C@H](O)[C@@H](O)c2ccc(O)cc2)NC(=O)[C@@H]2C[C@@H](O)CN2C(=O)[C@H]([C@@H](C)O)NC1=O` [CASPOFUNGIN], the MIC90 in test [6] (setting [19]) is above 16 µg/mL.
The same measure, in the same setting: the result for `OC(Cn1cncn1)(Cn1cncn1)c1ccc(F)cc1F` [FLUCONAZOLE] reads above 256 µg/mL; that for `C[C@@H](c1ncncc1F)[C@](O)(Cn1cncn1)c1ccc(F)cc1F` [VORICONAZOLE], 2 µg/mL (≈ 5.73 µM); that for `CC(=O)N1CCN(c2ccc(OCC3COC(Cn4ccnc4)(c4ccc(Cl)cc4Cl)O3)cc2)CC1` (stereo not given) [KETOCONAZOLE], above 16 µg/mL.
